Results taken from PMC7036849, “Development of Coumarin-Based Hydroxamates as Histone Deacetylase Inhibitors with Antitumor Activities” (Molecules, 2020).
One block for each molecule: values may come before it.

Experiments:
[1] = test system: MDA-MB-231 cells; experiment: Cell cycle arrest analysis (PI, flow cytometry); details: for cell cycle arrest: MDA-MB-231
Procedure: After 24 h of cell cycle treatment, the cells were washed three times with PBS, and the cell suspension was collected, centrifuged again, and then added to an ethanol fixative (70%) and placed in a refrigerator for overnight storage. After washing, the dye was added and stained with PI containing RNaseA solution for 30 min at 37 °C, and then analyzed by FACS.

[2] = test system: H157; experiment: SRB antiproliferative assay, H157; format: cell-based; details: Homo sapiens, NCI-H157, 48 h, read-out: IC50 H157
Procedure: Cancer cells (6 × 10^3 per well) were inoculated into 96-well plates. The treatment was carried out for 48 h, followed by SRB staining, and the absorption value was measured at 540 nm by a microplate reader. SAHA was used as a positive control, and the independent experiment was performed three times.

[3] = test system: MDA-MB-231 cells; experiment: Apoptosis analysis (annexin V, flow cytometry); details: 48 h
Procedure: Briefly, cell apoptosis analysis was measured by annexin V FITC/PI assay using Annexin v-PE/7-AAD Apoptosis Detection kit (BD). […] After 48 h, the drug-treated cells were washed three times with PBS; the cell suspension was collected and centrifuged; and the supernatant was removed.

[4] = test system: acetyl-histone H4; experiment: Western blot analysis, acetyl-histone H4; format: cell-based, human; details: MDA-MB-231, 1, 2 and 5 µM, 48 h
Procedure: (§1) Based on the aforementioned results, western blot analysis was further performed by immunoblotting assay (β-actin as the negative control).
(§2) Briefly, MDA-MB-231 cells were lysed in lysis buffer (50 mM Tris-HCl pH 8.0, 5 mM EDTA, 100 mM NaCl, 0.5% NP-40, 1 mM PMSF) and then centrifuged for 10 min at 12,000 r, and the insoluble debris was discarded. Cell lysates were further analyzed with SDS-PAGE and western blotting with indicated antibodies. After treatment with 13a and 13c for indicated times, cells were harvested with RIPA buffer (150 mM sodium chloride, 1% Triton X-100, 0.5% sodium deoxycholate, 0.1% SDS, 50 mM Tris and cocktails of protease and phosphatase inhibitors) for 10 min at room temperature and boiled for another 10 min. Equal amounts of total proteins (35 μg) underwent 15% SDS-PAGE and were electroblotted onto the polyvinylidene difluoride (PVDF) membrane. The membrane was blocked with 5% (w/v) fat-free dry milk in PBS-Tween 20 (PBST; 0.05%) for 1 h and incubated with primary antibody (1:1000 in PBST) at 4 °C overnight. […] The relative quantity of proteins was analyzed via the Image J software (NIH, Bethesda, MD, USA).
(§3) (B) Quantitative analysis. The relative levels of Ac-H3 and Ac-H4 used to control β-actin were determined by densimetric scanning.

[5] = test system: MDA-MB-231 cells; experiment: Colony formation assay; details: MDA-MB-231, seven days, compared with SAHA
Procedure: One week after the addition of the drugs, the medium was removed. The cells were then washed three times with PBS and fixed in methanol for 5 min. The cells were lastly stained with 1% crystal violet (Beyotime) for 15 min and washed with PBS. Images were collected using a scanning apparatus (Canon, Tokyo, Japan).

[6] = test system: human lung epithelial cells (Beas-2B); experiment: Antiproliferative activity against normal cells, Beas-2B; format: cell-based; details: read-out: Antiproliferative IC50 Beas-2B
Description: (§4) Two normal cell lines were selected: human lung epithelial cells (Beas-2B) and human liver epithelial cells (L-02).

[7] = test system: acetyl-histone H3; experiment: Western blot analysis, acetyl-histone H3; format: cell-based, human; details: MDA-MB-231, 1, 2 and 5 µM, 48 h
Procedure: as §1, §2, §3

[8] = test system: human liver epithelial cells (L-02); experiment: Antiproliferative activity against normal cells, L-02; format: cell-based; details: Epithelial cell, read-out: Antiproliferative IC50 L-02
Description: as §4

[9] = test system: A549; experiment: SRB antiproliferative assay, A549; format: cell-based; details: Homo sapiens, A549, 48 h, read-out: IC50 A549
Procedure: (§5) Cancer cells (6 × 10^3 per well) were inoculated into 96-well plates. The treatment was carried out for 48 h, followed by SRB staining, and the absorption value was measured at 540 nm by a microplate reader.

[10] = test system: MCF-7; experiment: SRB antiproliferative assay, MCF-7; format: cell-based; details: Homo sapiens, MCF7, 48 h, read-out: IC50 MCF-7
Procedure: as §5

[11] = test system: MDA-MB-231; experiment: SRB antiproliferative assay, MDA-MB-231; format: cell-based; details: Homo sapiens, MDA-MB-231, 48 h, read-out: IC50 MDA-MB-231
Procedure: as §5

[12] = test system: solid tumor cell lines; experiment: Antiproliferative activity, summary over tumor cell lines; format: cell-based; details: Homo sapiens, read-out: IC50 values against solid tumor cell lines (range)
Procedure: as §5

[13] = target: HDAC1 (Homo sapiens, UniProt Q13547); experiment: HDAC1 inhibitory assay (Boc-Lys(Ac)-AMC substrate); format: biochemical; details: n ≥ 3, SD <20% of the mean; read-out: IC50 against HDAC1
Procedure: The enzyme inhibitory assay was conducted by Shanghai ChemPartner Corporation (Shanghai, China). […] Then the lysine developer was added to terminate the reaction, and the samples were further incubated at 37 °C for 30 min. […] Three independent experiments with triplicate were carried out.

Chain of HDAC1 (Q13547 whole entry): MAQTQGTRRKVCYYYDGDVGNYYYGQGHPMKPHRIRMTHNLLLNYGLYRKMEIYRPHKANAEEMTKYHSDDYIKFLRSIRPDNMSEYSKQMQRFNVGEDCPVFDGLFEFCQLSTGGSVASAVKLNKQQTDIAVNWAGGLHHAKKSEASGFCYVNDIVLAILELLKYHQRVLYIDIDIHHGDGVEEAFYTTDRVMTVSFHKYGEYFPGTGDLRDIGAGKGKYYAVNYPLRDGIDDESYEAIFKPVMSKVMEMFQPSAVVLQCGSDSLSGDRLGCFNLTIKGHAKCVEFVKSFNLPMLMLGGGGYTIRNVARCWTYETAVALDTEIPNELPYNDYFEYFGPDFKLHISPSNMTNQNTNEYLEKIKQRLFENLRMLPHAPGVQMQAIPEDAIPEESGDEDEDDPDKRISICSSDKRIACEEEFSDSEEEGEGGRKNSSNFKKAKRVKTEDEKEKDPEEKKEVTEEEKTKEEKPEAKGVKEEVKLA

IC50 [2]: 1660 ± 140 nM
SMILES: O=C(CCCCCCC(=O)Nc1ccccc1)NO [Compound 1, vorinostat, reference compound]
cells in G2/M phase ([1]; MDA-MB-231, 1 μM, 24 h): 11.02% | cell apoptosis ([3]; MDA-MB-231, 1 µM): 7.3% | cell apoptosis ([3]; MDA-MB-231, 2 µM): 12.6%

SMILES: CCCOc1ccc2c(OCCCCCCCC(=O)NO)cc(=O)oc2c1 [Compound 13a, N-Hydroxy-8-((2-oxo-7-propoxy-2H-benzopyran-4-yl)oxy)octanoic acid]
acetylation level of histone H4 [4]: increased the acetylation levels of histone H3 and H4 in a clearly dose-dependent manner | inhibition of colony formation [5]: significant inhibition of the colony formation more potently than SAHA | IC50 [6]: > 50000 nM | cell cycle arrest [1]: arrested MDA-MB-231 cells in a dose-dependent manner | acetylation level of histone H3 [7]: increased the acetylation levels of histone H3 and H4 in a clearly dose-dependent manner | IC50 [2]: 1040 ± 80 nM | IC50 [8]: > 50000 nM | cell apoptosis ([3]; MDA-MB-231, 1 µM): 13.24% | cell apoptosis ([3]; MDA-MB-231, 2 µM): 18.01%

SMILES: CCCCOc1ccc2c(OCCCCCCCC(=O)NO)cc(=O)oc2c1 [Compound 13b, N-Hydroxy-8-((7-butoxy-2-oxo-2H-benzopyran-4-yl)oxy)octanoic acid]
IC50 [6]: > 50000 nM | IC50 [2]: 1200 ± 170 nM | IC50 [8]: > 20000 nM | IC50 [9]: 4090 ± 1540 nM | IC50 [10]: 2930 ± 490 nM | IC50 [11]: 1970 ± 560 nM

SMILES: COCCOc1ccc2c(OCCCCCCCC(=O)NO)cc(=O)oc2c1 [Compound 13c, N-Hydroxy-8-((7-(2-methoxyethoxy)-2-oxo-2H-chromen-4-yl)oxy)octanoic acid]
acetylation level of histone H4 [4]: increased the acetylation levels of histone H3 and H4 in a clearly dose-dependent manner | IC50 [12]: 360 to 2910 nM | inhibition of colony formation [5]: significant inhibition of the colony formation more potently than SAHA | IC50 [6]: > 100000 nM | cell cycle arrest [1]: arrested MDA-MB-231 cells in a dose-dependent manner | acetylation level of histone H3 [7]: increased the acetylation levels of histone H3 and H4 in a clearly dose-dependent manner | IC50 [2]: 590 ± 30 nM | IC50 [8]: > 100000 nM | cell apoptosis ([3]; MDA-MB-231, 1 µM): 19.26% | cell apoptosis ([3]; MDA-MB-231, 2 µM): 25.14%

SMILES: COCCCOc1ccc2c(OCCCCCCCC(=O)NO)cc(=O)oc2c1 [Compound 13d, N-Hydroxy-8-((7-(3-methoxypropoxy)-2-oxo-2H-chromen-4-yl)oxy)octanoic acid]
IC50 [6]: > 20000 nM | IC50 [2]: 2360 ± 500 nM | IC50 [8]: > 20000 nM | IC50 [9]: 4110 ± 650 nM | IC50 [10]: 5230 ± 1630 nM | IC50 [11]: 1700 ± 390 nM

IC50 [13]: 5.01 nM
SMILES: O=C(CCCCCCCOc1cc(=O)oc2cc(OCC3CCCCC3)ccc12)NO [Compound 13g]

IC50 [13]: 1.59 nM
SMILES: O=C(CCCCCCCOc1cc(=O)oc2cc(OCc3ccccc3[N+](=O)[O-])ccc12)NO [Compound 14b, N-Hydroxy-8-((7-((2-nitrobenzyl)oxy)-2-oxo-2H-chromen-4-yl)oxy)octanoic acid]

IC50 [13]: 1.97 nM
SMILES: O=C(CCCCCCCOc1cc(=O)oc2cc(OCc3cccc([N+](=O)[O-])c3)ccc12)NO [Compound 14c, N-Hydroxy-8-((7-((3-nitrobenzyl)oxy)-2-oxo-2H-chromen-4-yl)oxy)octanoic acid]

IC50 [13]: 1.72 nM
SMILES: O=C(CCCCCCCOc1cc(=O)oc2cc(OCc3ccc([N+](=O)[O-])cc3)ccc12)NO [Compound 14d, N-Hydroxy-8-((7-((4-nitrobenzyl)oxy)2-oxo-2H-chromen-4-yl)oxy)octanoic acid]

IC50 [13]: 2.4 nM
SMILES: O=C(CCCCCCCOc1cc(=O)oc2cc(OCc3ccccc3Cl)ccc12)NO [Compound 14h, N-Hydroxy-8-((7-((2-chlorobenzyl)oxy)-2-oxo-2H-chromen-4-yl)oxy)octanoic acid]

IC50 [13]: 4.25 nM
SMILES: O=C(CCCCCCCOc1cc(=O)oc2cc(OCc3cccc(Cl)c3)ccc12)NO [Compound 14i, N-Hydroxy-8-((7-((3-chlorobenzyl)oxy)-2-oxo-2H-chromen-4-yl)oxy)octanoic acid]

IC50 [13]: 2.52 nM
SMILES: O=C(CCCCCCCOc1cc(=O)oc2cc(OCc3ccc(Cl)cc3)ccc12)NO [Compound 14j, N-Hydroxy-8-((7-((4-chlorobenzyl)oxy)-2-oxo-2H-chromen-4-yl)oxy)octanoic acid]

IC50 [13]: 3.02 nM
SMILES: O=C(CCCCCCCOc1cc(=O)oc2cc(OCc3ccc(Br)cc3)ccc12)NO [Compound 14k, N-Hydroxy-8-((7-((4-bromobenzyl)oxy)2-oxo-2H-chromen-4-yl)oxy)octanoic acid]

IC50 [13]: 5.5 nM
SMILES: O=C(CCCCCCCOc1cc(=O)oc2cc(OCc3ccc(C(F)(F)F)cc3)ccc12)NO [Compound 14l]

SMILES: O=C(CCCCCCCOc1cc(=O)oc2cc(OCc3c(F)cccc3F)ccc12)NO [Compound 14m, N-Hydroxy-8-((7-((2,6-difluorobenzyl)oxy)2-oxo-2H-chromen-4-yl)oxy)octanoic acid]
IC50 [2]: 4810 ± 800 nM | IC50 [9]: 7580 ± 2050 nM | IC50 [10]: 6050 ± 1330 nM | IC50 [11]: 1950 ± 290 nM

IC50 [13]: 3.22 nM
SMILES: O=C(CCCCCCCOc1cc(=O)oc2cc(OCc3ccc(F)cc3Cl)ccc12)NO [Compound 14o, N-Hydroxy-8-((7-((2-chloro-4-fluorobenzyl)oxy)2-oxo-2H-chromen-4-yl)oxy)octanoic acid]

IC50 [13]: 1.56 nM
SMILES: Cc1ccccc1COc1ccc2c(OCCCCCCCC(=O)NO)cc(=O)oc2c1 [Compound 14p, N-Hydroxy-8-((7-((2-methylbenzyl)oxy)-2-oxo-2H-chromen-4-yl)oxy)octanoic acid]

IC50 [13]: 2.95 nM
SMILES: Cc1cccc(COc2ccc3c(OCCCCCCCC(=O)NO)cc(=O)oc3c2)c1 [Compound 14q, N-Hydroxy-8-((7-((3-methylbenzyl)oxy)-2-oxo-2H-chromen-4-yl)oxy)octanoic acid]

IC50 [13]: 2.5 nM
SMILES: Cc1ccc(COc2ccc3c(OCCCCCCCC(=O)NO)cc(=O)oc3c2)cc1 [Compound 14r, N-Hydroxy-8-((7-((4-methylbenzyl)oxy)2-oxo-2H-chromen-4-yl)oxy)octanoic acid]

IC50 [13]: 5.19 nM
SMILES: Cc1cccc(C)c1COc1ccc2c(OCCCCCCCC(=O)NO)cc(=O)oc2c1 [Compound 14s, N-Hydroxy-8-((7-((2,6-dimethylbenzyl)oxy)-2-oxo-2H-chromen-4-yl)oxy)octanoic acid]
